Reference: ChEMBL document CHEMBL2007661, “Compounds: GSK PKIS; Assays: UNC Frye lab” (2012)
Values joined by “and” are separate entries in the source; they are usually repeats but may differ in a detail not shown here. Equal values may be shown once.

Experiments:
[1] = target: T1, Inhibitor of nuclear factor kappa-B kinase subunit beta (Homo sapiens) (UniProt O14920); conditions: at 1 µM
T1 sequence (whole entry): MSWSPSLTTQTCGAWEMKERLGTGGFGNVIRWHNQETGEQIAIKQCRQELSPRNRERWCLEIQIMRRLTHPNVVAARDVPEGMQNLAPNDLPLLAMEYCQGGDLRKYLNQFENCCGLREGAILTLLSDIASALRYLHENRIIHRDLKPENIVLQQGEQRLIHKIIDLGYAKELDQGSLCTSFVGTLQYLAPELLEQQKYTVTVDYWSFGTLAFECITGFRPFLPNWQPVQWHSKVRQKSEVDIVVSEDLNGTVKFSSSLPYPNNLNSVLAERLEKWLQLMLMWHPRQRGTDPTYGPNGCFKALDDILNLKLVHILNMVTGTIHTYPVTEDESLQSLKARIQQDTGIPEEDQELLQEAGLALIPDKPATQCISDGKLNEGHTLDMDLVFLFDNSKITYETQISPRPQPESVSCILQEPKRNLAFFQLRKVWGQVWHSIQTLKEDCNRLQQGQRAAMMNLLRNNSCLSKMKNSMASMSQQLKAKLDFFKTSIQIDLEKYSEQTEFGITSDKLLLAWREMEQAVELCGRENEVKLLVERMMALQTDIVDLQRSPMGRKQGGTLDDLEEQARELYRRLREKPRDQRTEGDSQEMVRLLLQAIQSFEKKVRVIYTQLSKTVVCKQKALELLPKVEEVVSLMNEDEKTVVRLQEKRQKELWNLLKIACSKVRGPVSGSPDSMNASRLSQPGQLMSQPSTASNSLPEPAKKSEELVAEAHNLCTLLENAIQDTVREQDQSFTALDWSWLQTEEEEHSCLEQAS

[2] = target: T2, Tyrosine-protein kinase Mer (Homo sapiens) (UniProt Q12866); conditions: at 10 µM
T2 sequence (whole entry): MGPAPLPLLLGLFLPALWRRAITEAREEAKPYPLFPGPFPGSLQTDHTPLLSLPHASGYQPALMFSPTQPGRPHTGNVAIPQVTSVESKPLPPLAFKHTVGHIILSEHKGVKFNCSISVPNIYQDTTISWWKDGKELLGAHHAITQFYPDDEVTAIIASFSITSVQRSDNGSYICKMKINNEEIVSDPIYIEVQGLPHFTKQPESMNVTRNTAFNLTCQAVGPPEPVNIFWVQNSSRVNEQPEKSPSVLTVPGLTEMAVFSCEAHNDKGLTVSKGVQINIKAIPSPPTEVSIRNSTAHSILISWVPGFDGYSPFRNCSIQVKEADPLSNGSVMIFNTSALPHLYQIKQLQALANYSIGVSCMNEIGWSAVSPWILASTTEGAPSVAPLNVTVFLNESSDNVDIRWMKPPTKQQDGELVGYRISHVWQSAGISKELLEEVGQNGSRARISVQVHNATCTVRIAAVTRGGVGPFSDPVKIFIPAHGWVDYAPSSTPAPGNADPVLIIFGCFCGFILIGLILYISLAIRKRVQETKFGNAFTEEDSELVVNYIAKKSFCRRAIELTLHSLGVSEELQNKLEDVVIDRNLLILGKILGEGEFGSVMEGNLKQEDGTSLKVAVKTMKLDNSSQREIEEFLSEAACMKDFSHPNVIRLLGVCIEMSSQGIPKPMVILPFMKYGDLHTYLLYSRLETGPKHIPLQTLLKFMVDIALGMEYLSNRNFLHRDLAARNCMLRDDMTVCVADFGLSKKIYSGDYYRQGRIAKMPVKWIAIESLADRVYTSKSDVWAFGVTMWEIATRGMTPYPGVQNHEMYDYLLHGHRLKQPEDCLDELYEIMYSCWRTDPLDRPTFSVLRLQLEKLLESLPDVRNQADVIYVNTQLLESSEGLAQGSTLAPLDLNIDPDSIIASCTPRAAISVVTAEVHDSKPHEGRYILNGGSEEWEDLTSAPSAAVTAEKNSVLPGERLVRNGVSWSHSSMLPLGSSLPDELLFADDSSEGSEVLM

[3] = target: T3, Inhibitor of nuclear factor kappa-B kinase subunit epsilon (Homo sapiens) (UniProt Q14164); conditions: at 1 µM
T3 sequence (whole entry): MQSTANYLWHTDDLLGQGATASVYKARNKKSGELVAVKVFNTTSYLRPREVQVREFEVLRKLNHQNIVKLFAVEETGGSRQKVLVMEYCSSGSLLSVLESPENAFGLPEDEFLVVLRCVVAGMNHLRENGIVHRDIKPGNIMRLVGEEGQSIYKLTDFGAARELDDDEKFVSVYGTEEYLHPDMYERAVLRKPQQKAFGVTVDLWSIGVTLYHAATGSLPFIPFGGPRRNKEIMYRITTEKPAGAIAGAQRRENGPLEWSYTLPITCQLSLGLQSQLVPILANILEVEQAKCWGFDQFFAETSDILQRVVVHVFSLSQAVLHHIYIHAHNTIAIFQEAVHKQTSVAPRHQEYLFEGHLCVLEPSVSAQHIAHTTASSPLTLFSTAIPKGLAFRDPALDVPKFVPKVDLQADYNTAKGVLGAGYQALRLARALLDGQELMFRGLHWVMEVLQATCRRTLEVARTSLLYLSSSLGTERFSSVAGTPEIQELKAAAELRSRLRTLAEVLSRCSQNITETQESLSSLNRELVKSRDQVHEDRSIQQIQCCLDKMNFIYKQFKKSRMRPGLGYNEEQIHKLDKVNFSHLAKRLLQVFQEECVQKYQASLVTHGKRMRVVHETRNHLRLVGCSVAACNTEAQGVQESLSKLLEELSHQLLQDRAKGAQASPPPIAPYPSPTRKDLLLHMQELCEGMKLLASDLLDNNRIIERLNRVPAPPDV

[4] = target: T4, Serine/threonine-protein kinase TBK1 (Homo sapiens) (UniProt Q9UHD2); conditions: at 1 µM
T4 sequence (whole entry): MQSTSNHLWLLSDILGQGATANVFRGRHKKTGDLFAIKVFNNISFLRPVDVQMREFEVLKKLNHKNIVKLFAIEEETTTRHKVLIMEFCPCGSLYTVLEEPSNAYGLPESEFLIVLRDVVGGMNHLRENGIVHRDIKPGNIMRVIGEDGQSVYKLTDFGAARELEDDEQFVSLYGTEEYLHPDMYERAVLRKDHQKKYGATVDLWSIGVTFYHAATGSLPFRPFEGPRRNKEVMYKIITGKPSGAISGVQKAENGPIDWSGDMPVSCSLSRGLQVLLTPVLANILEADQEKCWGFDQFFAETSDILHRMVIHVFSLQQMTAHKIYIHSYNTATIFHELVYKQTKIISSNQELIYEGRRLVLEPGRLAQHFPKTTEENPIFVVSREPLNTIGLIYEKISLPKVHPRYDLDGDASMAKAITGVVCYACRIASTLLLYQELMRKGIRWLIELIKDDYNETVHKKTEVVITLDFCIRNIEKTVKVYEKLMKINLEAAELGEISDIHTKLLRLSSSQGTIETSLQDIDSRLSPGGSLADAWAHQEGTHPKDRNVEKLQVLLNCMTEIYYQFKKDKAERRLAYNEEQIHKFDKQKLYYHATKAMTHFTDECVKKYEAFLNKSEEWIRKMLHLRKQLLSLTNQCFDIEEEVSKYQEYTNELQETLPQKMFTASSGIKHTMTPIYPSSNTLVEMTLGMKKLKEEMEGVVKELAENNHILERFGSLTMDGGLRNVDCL

Row | inhibition [1] | inhibition [2] [%] | inhibition [3] | inhibition [4] | Compound
1 | -3% and -2% | 3 | 0% and 1% | 0% and -1% | CNC(=O)c1cncc(/C=C/c2c(Cl)cccc2Cl)c1
2 | -2% and -1% | 4 | 0% and 1% | 3% and 0% | Cc1cccc2c1NC(=O)/C2=N\Nc1ccc(S(N)(=O)=O)cc1
